Test results as given in patent US10435396B2, “2-substituted indazoles, methods for producing same, pharmaceutical preparations that contain same, and use of same to produce drugs” (Bayer Pharma Aktiengesellschaft, priority 2016, dated 2019).
Like-named read-outs stand apart in the source and are kept apart here.

Columns and labels:
[1] = test system: secretion of TNF-α in THP-1 cells; assay: TNF-α secretion in THP-1 cells (LPS-triggered); type: cell-based, human; conditions: LPS 0.05 μg/ml, read-out: IC50 with respect to the secretion of TNF-α in THP-1 cells
Experimental: TNF-α Secretion in THP-1 Cells
With the aid of this test, it is possible to test substances for their ability to inhibit secretion of TNF-α (tumour necrosis factor alpha) in THP-1 cells (human monocytic acute leukaemia cell line). TNF-α is a cytokine involved in inflammatory processes. In this test, TNF-α secretion is triggered by incubation with bacterial lipopolysaccharide (LPS).
THP-1 cells are kept in continuous suspension cell culture [RPMI 1460 medium with L-Glutamax (Gibco, Cat No. 61870-044) supplemented with foetal calf serum (FCS) 10% (Invitrogen, Cat No. 10082-147), 1% penicillin/streptomycin (Gibco BRL, Cat No. 15140-114)] and should not exceed a cell concentration of 1×10^6 cells/ml. The assay is carried out in cell culture medium (RPMI 1460 medium with L-Glutamax supplemented with FCS 10%).
In each case 2-2.5 μl of the cell suspension (corresponds to 4000 cells) per well were dispensed into a 384-well test plate (Greiner, Cat No. 784076), in each of which 40-50 nl substance had been dissolved in 100% DMSO. This was done using […] in the range from 20 μM to 0.073 nM for each substance. The cells were incubated at room temperature for 15 min. 2-2.5 μl of 0.1 μg/ml LPS (Sigma, Escherichia coli 055:B5, Cat. No. L5418) dissolved in cell culture medium (final concentration 0.05 μg/ml) were then dispensed into each well. As neutral control, cells were treated with 0.05 μg/ml LPS and 1% DMSO and, as inhibitor control, with 1% DMSO only.
The plates were centrifuged at 80 g for 30 s and incubated at 37° C., 5% CO2 and 95% atmospheric humidity for 17 h. The amount of TNF-α was determined using the TNF-alpha HTRF Detection Kit (Cisbio, Cat No. 62TNFPEB/C). To this end, 2 μl of the detection solution in each case, consisting of anti-TNF-α-XL665 conjugate and anti-TNF-α-cryptate conjugate dissolved in the reconstitution buffer in accordance with the manufacturer's instructions, were added for the HTRF (Homogeneous Time-Resolved Fluorescence) test. After the addition, the mixture was incubated either at room temperature for 3 h or at 4° C. overnight. The signals were then read at 620/665 nm using an HTRF-enabled measuring instrument such as the BMG PheraStar.
The activity of the substances is expressed as the ratio between neutral and inhibitor control in percent. The IC50 values were calculated using a 4-parameter fit.

[2] = test system: NF-kB activity in TMD-8-NF-kB-luc cells; assay: NF-kB reporter assay; type: cell-based, human; conditions: 6 h, One-Glo, read-out: IC50 with respect to the inhibition of NF-kB activity in TMD-8-NF-kB-luc cells
Experimental: NF-kB Reporter Assay The effect of the inventive compounds of the general formula (I) on the NF-kB signalling pathway was examined in vitro in human DLBCL cells (see Table 4). 10 000 TMD-8-NF-kB-luc reporter cells at 30 μl/cavity in growth medium (RPMI (Biochrom: FG 1215), 20% FCS (Biochrom: S 0615)) were transferred into a 384-cavity plate (Perkin Elmer, white) and incubated at 37° C. overnight. After 24 h, the cells were treated with the test substances and incubated at 37° C. for 6 h. The test substances were added to the cells in a 7-stage, 3-fold dilution series using an HP D300 digital dispenser. As control, the cells were treated with the vehicle (DMSO). After 6 h, the cells were treated with 30 μl/well One-Glo solution (Promega, E6110) and incubated at room temperature for 10 min, and the luminescence was measured using a VICTOR V (Perkin Elmer) in order to determine the NF-kB reporter activity at the end of the treatment. The percentage effect of the NF-kB reporter activity and the IC50 derived therefrom were determined for each test substance with the aid of the values for an NF-kB pathway inhibitor (I-kappa B kinase inhibitor) (−)-7-[2-(cyclopropylmethoxy)-6-hydroxyphenyl]-5-[(3S)-3-piperidinyl]-1,4-dihydro-2H-pyrido[2,3-d][1,3]oxazin-2-one (CAS Number 600734-02-9; see WO 2003076447) (=maximum inhibition) and the DMSO control (=minimum inhibition). The IC50 values were calculated using a 4-parameter fit.

human PBMCs = assay: In vitro LPS-induced cytokine production in human PBMCs; type: cell-based; conditions: 0.1 μg/ml LPS, 24 hours
Experimental: In Vitro LPS (Lipopolysaccharide)-Induced Cytokine Production in Human PBMCs (Peripheral Blood Mononuclear Cells)
The effect of the inventive compounds of the general formula (I) on induced cytokine production in human PBMCs was examined. Cytokine production was induced here by LPS, a TLR4 ligand, which leads to activation of the IRAK4-mediated signal path.
The human PBMCs were obtained from anti-coagulated human whole blood. To this end, 15 ml of Ficoll-Paque (Biochrom, Cat. No. L6115) were initially charged in Leucosep tubes and 20 ml of human blood were added. After centrifugation of the blood at 800 g for 15 min at room temperature, the plasma including the platelets was removed and discarded. The PBMCs were transferred into centrifugation tubes and made up with PBS (phosphate-buffered saline) (Gibco, Cat. No. 14190). The cell suspension was centrifuged at room temperature at 250 g for 10 min and the supernatant was discarded. The PBMCs were resuspended in complete medium (RPMI 1640, without L-glutamine (PAA, Cat. No. E15-039), 10% FCS; 50 U/ml penicillin, 50 μg/ml streptomycin (PAA, Cat. No. P11-010) and 1% L-glutamine (Sigma, Cat. No. G7513)).
The assay was also carried out in complete medium. The PBMCs were sown in 96-well plates at a cell density of 2.5×10^5 cells/well. The compounds according to the invention were subjected to serial dilution in a constant volume of 100% DMSO and used in the assay at 8 different concentrations in the range from 10 μM to 3 nM such that the final DMSO concentration was 0.4% DMSO. Prior to the actual stimulation, the cells were then pre-incubated therewith for 30 min. […] Cell viability was determined using the CellTiter-Glo luminescent assay (Promega, Cat. No. G7571 (G755/G756A)) in accordance with the manufacturer's instructions. The amount of secreted TNF-α in the cell culture supernatant was determined using the Human ProInflammatory 9-Plex Tissue Culture Kit (MSD, Cat. No. K15007B) in accordance with the instructions of the manufacturer. […]

COc1cc2nn(C3CCOCC3)cc2cc1NC(=O)c1cccc(N2CCOCC2)n1 [Example 24, N-[6-Methoxy-2-(tetrahydro-2H-pyran-4-yl)-2H-indazol-5-yl]-6-(morpholin-4-yl)pyridine-2-carboxamide]
IC50 ([1]; Homo sapiens, THP-1, 17 h): 170 nM
IC50 ([2]; Homo sapiens): 22600 nM

COc1cc2nn(C3CCNCC3)cc2cc1NC(=O)c1cccc(C(F)(F)F)n1 [Example 2, N-[6-Methoxy-2-(piperidin-4-yl)-2H-indazol-5-yl]-6-(trifluoromethyl)pyridine-2-carboxamide]
IC50 ([1]; Homo sapiens, THP-1, 17 h): 130 nM
IC50 ([2]; Homo sapiens): 9450 nM

COc1cc2nn(C3CCS(=N)(=O)CC3)cc2cc1NC(=O)c1cccc(C(F)(F)F)n1 (single isomer, unassigned) [Example 21, N-[2-(1-Imino-1-oxidohexahydro-1λ^4-thiopyran-4-yl)-6-methoxy-2H-indazol-5-yl]-6-(trifluoromethyl)pyridine-2-carboxamide]
IC50 ([1]; 17 h): 170 nM
IC50 [2]: 5190 nM

COc1cc2nn([C@@H]3C[C@@H]4C[C@H]3CN4C)cc2cc1NC(=O)c1cccc(C(F)(F)F)n1 (relative stereo) [Example 18, rel-N-{6-Methoxy-2-[(1S,4S,5R)-2-methyl-2-azabicyclo[2.2.1]hept-5-yl]-2H-indazol-5-yl}-6-(trifluoromethyl)pyridine-2-carboxamide]
IC50 ([1]; Homo sapiens, THP-1, 17 h): 60 nM
IC50 ([2]; Homo sapiens): 5520 nM

COc1cc2nn(C3CC[S+]([O-])CC3)cc2cc1NC(=O)c1cccc(C(F)(F)F)n1 (racemic) [Example 12, rac-N-[6-Methoxy-2-(1-oxidotetrahydro-2H-thiopyran-4-yl)-2H-indazol-5-yl]-6-(trifluoromethyl)pyridine-2-carboxamide]
IC50 ([1]; Homo sapiens, THP-1, 17 h): 100 nM
IC50 ([2]; Homo sapiens): 6810 nM

COc1cc2nn(C3CCOCC3)cc2cc1NC(=O)c1cccc(C(C)(C)O)n1 [Example 28, 6-(2-Hydroxypropan-2-yl)-N-[6-methoxy-2-(tetrahydro-2H-pyran-4-yl)-2H-indazol-5-yl]pyridine-2-carboxamide]
IC50 ([1]; Homo sapiens, THP-1, 17 h): 410 nM
IC50 ([2]; Homo sapiens): 2680 nM

CC(C)(O)c1cc2nn(C3CCNCC3)cc2cc1NC(=O)c1cccc(C(F)(F)F)n1 [Example 46, N-[6-(2-Hydroxypropan-2-yl)-2-(piperidin-4-yl)-2H-indazol-5-yl]-6-(trifluoromethyl)pyridine-2-carboxamide]
IC50 ([1]; Homo sapiens, THP-1, 17 h): 90 nM
IC50 ([2]; Homo sapiens): 13400 nM
activity (secreted TNF-α, LPS-induced cytokine production in human PBMCs) (human PBMCs): ≤ 1 µM

CC(C)(O)c1cc2nn(C3CCS(=O)(=O)CC3)cc2cc1NC(=O)c1cccc(C(F)(F)F)n1 [Example 44, N-[2-(1,1-Dioxidotetrahydro-2H-thiopyran-4-yl)-6-(2-hydroxypropan-2-yl)-2H-indazol-5-yl]-6-(trifluoromethyl)pyridine-2-carboxamide]
IC50 ([1]; Homo sapiens, THP-1, 17 h): 170 nM
IC50 ([2]; Homo sapiens): 14600 nM
activity (secreted TNF-α, LPS-induced cytokine production in human PBMCs) (human PBMCs): ≤ 1 µM

COc1cc2nn(C3CCS(=N)(=O)CC3)cc2cc1NC(=O)c1cccc(C(F)(F)F)n1 (single isomer, unassigned) [Example 20, N-[2-(1-Imino-1-oxidohexahydro-1λ^4-thiopyran-4-yl)-6-methoxy-2H-indazol-5-yl]-6-(trifluoromethyl)pyridine-2-carboxamide]
IC50 ([1]; 17 h): 60 nM
IC50 [2]: 21800 nM

COc1cc2nn(C3CCOCC3)cc2cc1NC(=O)c1cccc(C(F)F)n1 [Example 23, 6-(Difluoromethyl)-N-[6-methoxy-2-(tetrahydro-2H-pyran-4-yl)-2H-indazol-5-yl]pyridine-2-carboxamide]
IC50 ([1]; Homo sapiens, THP-1, 17 h): 230 nM
IC50 ([2]; Homo sapiens): 3840 nM

COc1cc2nn(C3CCN(C(=O)CO)CC3)cc2cc1NC(=O)c1cccc(C(F)(F)F)n1 [Example 5, N-[2-(1-Glycoloylpiperidin-4-yl)-6-methoxy-2H-indazol-5-yl]-6-(trifluoromethyl)pyridine-2-carboxamide]
IC50 ([1]; Homo sapiens, THP-1, 17 h): 210 nM
IC50 ([2]; Homo sapiens): 5100 nM

COc1cc2nn(C3CCOCC3)cc2cc1NC(=O)c1cccc(C(F)(F)F)n1 [Example 1, N-[6-Methoxy-2-(tetrahydro-2H-pyran-4-yl)-2H-indazol-5-yl]-6-(trifluoromethyl)pyridine-2-carboxamide]
IC50 ([1]; Homo sapiens, THP-1, 17 h): 210 nM
IC50 ([2]; Homo sapiens): 15600 nM

COc1cc2nn(C3CCN(C4COC4)CC3)cc2cc1NC(=O)c1cccc(C(F)(F)F)n1 [Example 10, N-{6-Methoxy-2-[1-(oxetan-3-yl)piperidin-4-yl]-2H-indazol-5-yl}-6-(trifluoromethyl)pyridine-2-carboxamide]
IC50 ([1]; Homo sapiens, THP-1, 17 h): 170 nM
IC50 ([2]; Homo sapiens): 28900 nM

COc1cc2nn(C3CCN(C)CC3)cc2cc1NC(=O)c1cccc(C(F)(F)F)n1 [Example 4, N-[6-Methoxy-2-(1-methylpiperidin-4-yl)-2H-indazol-5-yl]-6-(trifluoromethyl)pyridine-2-carboxamide]
IC50 ([1]; Homo sapiens, THP-1, 17 h): 140 nM
IC50 ([2]; Homo sapiens): 7410 nM

COc1cc2nn(C3CCN(CCO)CC3)cc2cc1NC(=O)c1cccc(C(F)(F)F)n1 [Example 13, N-{2-[1-(2-Hydroxyethyl)piperidin-4-yl]-6-methoxy-2H-indazol-5-yl}-6-(trifluoromethyl)pyridine-2-carboxamide]
IC50 ([1]; Homo sapiens, THP-1, 17 h): 140 nM
IC50 ([2]; Homo sapiens): 5100 nM
